Experimental data published in paper PMC8465942, “Cyano- and Ketone-Containing Selenoesters as Multi-Target Compounds against Resistant Cancers” (Cancers, 2021).
“Also recorded” adds a separate entry of the source. Where two headings read alike, the source gives them in different places.

Key:
[1] = system: HeLa (cervical adenocarcinoma); experiment: Cytotoxicity on HeLa cells; format: cell-based; conditions: Homo sapiens
Description: (§1) The activity of selenoesters was tested on several cancer cell lines, including HepG2 (hepatocellular carcinoma, CCL-23TM, ATCC); HeLa (cervical adenocarcinoma, CCL-2TM, ATCC); B16 (skin melanoma, CCL-6322TM, ATCC); and a non-cancerous cell line, HDF (human dermal fibroblasts, Sigma-Aldrich). HepG2, HeLa, B16, and HDF cell lines were cultivated in EMEM medium supplemented with 10% FBS, 2 mM L-glutamine, and 1% penicillin-streptomycin mixture. The HaCaT cell line was cultivated in DMEM medium supplemented with 10% FBS and 1% penicillin-streptomycin mixture. All of the cells were cultivated in a CO2 incubator (5% CO2, 37 °C). Twice per week, the cell lines were passaged according to a standardized protocol with a trypsin-EDTA solution.
(§2) The selectivity indexes (SI) were calculated as the ratio of the IC50 value in the non-tumour cells and the IC50 in the cancer cell lines. The compound’s activity towards cancer cells is considered as strongly selective if the selectivity index (SI) value is higher than 6, moderately selective if 3 < SI < 6, slightly selective if 1 < SI < 3, and non-selective if SI is lower than 1 [16].

[2] = system: HepG2 (hepatocellular carcinoma); experiment: Cytotoxicity on HepG2 cells; format: cell-based; conditions: Homo sapiens
Description: as §1, §2

[3] = system: resistant Colo 320 colon adenocarcinoma cells expressing the ABCB1 transporter; experiment: Checkerboard combination assay with doxorubicin; format: cell-based, human
Description: A checkerboard microplate method was applied to study the effect of drug interactions between the selenocompounds and the chemotherapeutic drug doxorubicin on resistant Colo 320 colon adenocarcinoma cells expressing the ABCB1 transporter. Results were expressed in terms of the combination index (CI) values at 50% growth inhibition (ED50), which were determined by using CompuSyn software to plot 4 or 5 data points for each ratio.
To perform the experiment, the dilutions of doxorubicin were made in a horizontal direction in 100 µL, and the dilutions of the Se-compounds were made vertically in the microtiter plate in a volume of 50 µL. The cells were re-suspended in the culture medium and distributed into each well in 50 µL portions containing 6000 cells. The plates were incubated for 72 h at 37 °C in a CO2 incubator. The cell growth rate was determined after MTT staining. At the end of the incubation period, 20 μL of MTT solution was added to each well. After incubation at 37 °C for 4 h, 100 μL of SDS was added to each well and the plates were further incubated at 37 °C overnight. The optical density (OD) was measured at 540/630 nm with the Multiscan EX ELISA reader.

[4] = Cytotoxicity (MTT) on normal MRC-5 fibroblasts; format: cell-based; conditions: human
Excerpt: (§3) Three cell lines have been used in this study: the doxorubicin-sensitive Colo 205 (CCL-222, ATCC, Manassas, VA, USA) human colonic adenocarcinoma cell line; the multidrug resistant Colo 320/MDR-LRP expressing P-gp (MDR1)-LRP (CCL-220.1, ATCC) human colonic adenocarcinoma cell line; and the MRC-5 human embryonal lung fibroblast cell line (CCL-171, ATCC). The colon adenocarcinoma cell lines were purchased from LGC Promochem (Teddington, UK), and the MRC-5 cell line was purchased from Sigma-Aldrich (Merck KGaA, Darmstadt, Germany). Their culture conditions are as follows: Colo 205 (CCL-222, ATCC) and Colo 320/MDR-LRP expressing P-gp (MDR1)-LRP (CCL-220.1, ATCC) human colon adenocarcinoma cell lines were cultured in RPMI 1640 medium, supplemented with 10% FBS, 2 mM L-glutamine, 1 mM Na-pyruvate, and […]. The cell lines were incubated at 37 °C, 5% CO2, and 95% air atmosphere. The semi-adherent human colon cancer cells were detached with a Trypsin-Versene (EDTA) solution for 5 min at 37 °C. MRC-5 human embryonal lung fibroblast cells were cultured in EMEM containing 4.5 g/L of glucose and supplemented with a non-essential amino acid mixture, a selection of vitamins, and 10% FBS. The cell lines were incubated at 37 °C, 5% CO2, and 95% air atmosphere.
(§4) The effects of increasing concentrations of the compounds on cell growth were tested in 96-well flat-bottomed microtiter plates. Moreover, 10^4 of human colonic adenocarcinoma cells in 100 μL of the medium (RPMI-1640) were added to each well, except for the medium control wells. The adherent human embryonic lung fibroblast cell line was seeded in the EMEM medium for 4 h before the assay. The two-fold serial dilutions of the compounds were made in a separate plate (0.19–100 μM), and then transferred to the plates containing the adherent corresponding cell line. Culture plates were incubated at 37 °C for 24 h. At the end of the incubation period, 20 μL of MTT (thiazolyl blue tetrazolium bromide) solution (from a 5 mg/mL stock solution) were added to each well. After incubation at 37 °C for 4 h, 100 μL of sodium dodecyl sulfate (SDS) solution (10% SDS in 0.01 M HCl) was added to each well, and the plates were further incubated at 37 °C overnight. Cell growth was determined by measuring the optical density (OD) at 540 nm (ref. 630 nm) with a Multiscan EX ELISA reader (Thermo Labsystems, Cheshire, WA, USA). Inhibition of cell growth was expressed as IC50 values, defined as the inhibitory dose that reduces the growth of the cells exposed to the tested compounds by 50%. IC50 values and the SD of triplicate experiments were calculated by using GraphPad Prism software version 5.00 for Windows, with a non-linear regression curve fit (GraphPad Software, San Diego, CA, USA; www.graphpad.com, accessed on 12 July 2021). Doxorubicin (from a 2 mg/mL stock solution, Teva Pharmaceuticals) was used as a positive control.

[5] = system: Colo 320/MDR-LRP human colonic adenocarcinoma cell line; experiment: Cytotoxicity (MTT) on resistant Colo 320 cells; format: cell-based; conditions: for IC50: Homo sapiens, read-out: Colo 320 (IC50 µM) Mean; for SI MRC-5/Colo 320: ratio IC50 non-tumour cells / IC50 cancer cells
Excerpt: as §3, §4, §2

[6] = system: Colo 205 human colonic adenocarcinoma cell line; experiment: Cytotoxicity (MTT) on sensitive Colo 205 cells; format: cell-based; conditions: for IC50: Homo sapiens, read-out: Colo 205 (IC50 µM) Mean; for SI MRC-5/Colo 205: ratio IC50 non-tumour cells / IC50 cancer cells
Excerpt: as §3, §4, §2

B16 (skin melanoma) = experiment: Cytotoxicity on B16 cells; format: cell-based, murine; conditions: Mus musculus
Description: as §1, §2

[7] = system: HeLa (cervical adenocarcinoma); experiment: Cytotoxicity on HeLa cells; format: cell-based, human; conditions: ratio IC50 non-tumour cells / IC50 cancer cells
[8] = in at least one of the ratios tested
[9] = ratio 0.6:1, starting conc. 5 µM
[10] = ratio 1.2:1, starting conc. 5 µM
[11] = ratio 2.4:1, starting conc. 5 µM
[12] = ratio 4.8:1, starting conc. 5 µM
[13] = ratio 9.6:1, starting conc. 5 µM
[14] = ratio 0.7:1, starting conc. 6 µM
[15] = ratio 1.4:1, starting conc. 6 µM
[16] = ratio 2.8:1, starting conc. 6 µM
[17] = ratio 5.6:1, starting conc. 6 µM
[18] = ratio 11.2:1, starting conc. 6 µM
[19] = ratio 22.4:1, starting conc. 6 µM
[20] = 24 h, MTT, read-out: MRC-5 (IC50 µM) Mean

| Structure (SMILES) | IC50 [1] [µM] | IC50 [2] [µM] | Interaction with doxorubicin [3, 8] | IC50 at 24 h [4] [µM] | IC50 ([5]; COLO 320, 24 h, MTT) [µM] | SI MRC-5/Colo 320 [5] | IC50 ([6]; COLO 205, 24 h, MTT) [µM] | SI MRC-5/Colo 205 [6] | IC50 (B16 (skin melanoma)) [µM] | SI MRC-5/HeLa [7] | Type of Interaction [3, 14] | Type of Interaction [3, 15] | Type of Interaction [3, 16] | Type of Interaction [3, 17] | Type of Interaction [3, 18] | Type of Interaction [3, 19] | IC50 at 24 h [4, 20] [µM] | IC50 ([5]; COLO 320, 24 h) [µM] | IC50 ([6]; COLO 205, 24 h) [µM] | further results |
| --- | --- | --- | --- | --- | --- | --- | --- | --- | --- | --- | --- | --- | --- | --- | --- | --- | --- | --- | --- | --- |
| CC(=O)C[Se]C(=O)c1cccs1 [K1, Se-(2-Oxopropyl) Thiophene-2-carboselenoate] | 2.5 | 2.3 | synergistic manner; also recorded: interact synergistically | 2.24 | 1.47 | 1.52 | 1.53 | 1.46 | 1.4 | 1.5 |  |  |  |  |  |  |  |  |  | Type of Interaction [3, 9]: Antagonism; Type of Interaction [3, 10]: Additive effect; Type of Interaction [3, 11]: Additive effect; Type of Interaction [3, 12]: Slight synergism; Type of Interaction [3, 13]: Slight antagonism |
| CC(=O)C[Se]C(=O)c1ccccc1F [K2, Se-(2-Oxopropyl) 2-Fluorobenzoselenoate] | 2.5 | 2.2 |  | 2.53 | 2.38 | 1.06 | 3.35 |  | 1.2 | 1.0 | Antagonism | Antagonism | Slight antagonism | Additive effect | Antagonism | Antagonism |  |  |  |  |
| CC(=O)C[Se]C(=O)c1ccc(Br)cc1 [K3, Se-(2-Oxopropyl) 4-Bromobenzoselenoate] | 2.1 | 3.1 | synergistic manner; also recorded: interact synergistically |  |  | 1.33 |  | 1.25 | 1.7 | 1.1 | Moderate antagonism | Synergism | Moderate synergism | Antagonism | Moderate antagonism | Antagonism | 2.86 | 2.15 | 2.28 |  |
| CC(=O)C[Se]C(=O)c1ccccc1C(F)(F)F [K4, Se-(2-Oxopropyl) 2-(Trifluoromethyl)benzoselenoate] | 1.9 | 4.3 | synergistic manner; also recorded: interact synergistically |  |  | 2.45 |  |  | 2 | 1.5 |  |  |  |  |  |  | 3.63 | 1.48 | 1.05 | Type of Interaction [3, 9]: Synergism; Type of Interaction [3, 10]: Additive effect; Type of Interaction [3, 11]: Additive effect; Type of Interaction [3, 12]: Moderate synergism; Type of Interaction [3, 13]: Slight synergism; Type of Interaction ([3]; ratio 19.2:1, starting conc. 5 µM): Additive effect |
| CC(=O)C[Se]C(=O)c1cccc(C(F)(F)F)c1 [K5, Se-(2-Oxopropyl) 3-(Trifluoromethyl)benzoselenoate] | 2.5 | 2.4 | synergistic manner; also recorded: interact synergistically | 3.11 | 2.17 | 1.43 | 2.14 | 1.45 | 1.1 | 1.2 | Synergism | Moderate synergism | Synergism | Synergism | Synergism | Synergism |  |  |  | Interaction with doxorubicin ([3]; in all ratios tested): synergistic interaction |
| CC(=O)C[Se]C(=O)c1ccc(F)c(Cl)c1 [K6, Se-(2-Oxopropyl) 3-Chloro-4-fluorobenzoselenoate] | 2.3 | 2.9 | synergistic manner; also recorded: interact synergistically | 3.62 | 2.1 | 1.72 | 2.1 | 1.73 | 1.3 | 1.6 | Synergism | Moderate synergism | Synergism | Synergism | Synergism | Synergism |  |  |  | Interaction with doxorubicin ([3]; in all ratios tested): synergistic interaction |
| CC(=O)C[Se]C(=O)c1ccc(C(C)(C)C)cc1 [K7, Se-(2-Oxopropyl) 4-(Tert-butyl)benzoselenoate] | 2.7 | 3.7 |  |  |  | 1.45 |  | 1.38 | 1.4 | 1.4 | Moderate antagonism | Antagonism | Moderate antagonism | Moderate antagonism | Antagonism | Antagonism | 3.72 | 2.57 | 2.69 |  |
| CC(=O)C[Se]C(=O)c1cc(F)c(F)cc1F [K8, Se-(2-Oxopropyl) 2,4,5-Trifluorobenzoselenoate] | 2 | 4 | synergistic manner; also recorded: interact synergistically | 2.5 | 2.37 | 1.05 | 2.24 | 1.12 | 1.4 | 1.3 | Strong synergism | Antagonism | Antagonism | Antagonism | Antagonism |  |  |  |  |  |
